These are literature values, as cited in patent US9072782B2, “Gadolinium complex, method for preparing same, and MRI contrast agent comprising same” (CATHLOIC UNIVERSITY INDUSTRY ACADEMIC COOPERATION FOUNDATION, priority 2009, dated 2015).

For data set [1] the following is noted: Hiroki Yoshikawa et al., Gazoshindan 1986.
For data set [2] the following is noted: prior DTPA-Gd.

`O=C([O-])CN(CCN(CC(=O)[O-])CC(=O)O)CCN(CC(=O)[O-])CC(=O)O.[Gd+3]` [DTPA-Gd]: the half-life entry in data set [1] was “about 14 minutes”. Also, the “time taken to be washed out from tissue” value in data set [2] is “about 30 minutes”.
